Assay results published in article PMC8392292 (Biomedicines, 2021).
Where a name gives a salt, the structure may show the parent alone. Read-outs that look alike come from different tables or passages of the source.

What was measured:
SARS-CoV-2 RdRp = SARS-CoV-2 RdRp (Severe acute respiratory syndrome coronavirus 2, UniProt P0DTD1); test: cell-based; assay type: cell-based; settings: for Effect on SARS-CoV-2 RdRp activity: without nsp7 and nsp8; for inhibition at 100 µM: read-out: Inhibition % of RdRp Activity at Max. Dose; for FLuc activity (internal control): compound at the indicated concentrations
[1] = test system: SARS-CoV-2 RdRp with nsp7 and nsp8; assay type: cell-based; settings: nsp7 + nsp8 or nsp8-IRES-nsp7 plasmids co-transfected, HEK293T
SARS-CoV-2 = settings: cited from earlier work
[2] = […], mean ± standard error of the mean, read-out: IC50 of SARS-CoV-2 RdRp activity
[3] = representative experiment, non-linear regression graph, HEK293T, 15 h, read-out: IC50 of SARS-CoV-2 RdRp activity in the figure
[4] = IC50 of SARS-CoV-2 RdRp activity
[5] = HEK-293T, max. dose 100 μM, HEK293T, 15 h

Row | Structure (SMILES) | IC50 (SARS-CoV-2 RdRp; [2]) | IC50 (SARS-CoV-2 RdRp; [3]) | inhibition at 100 µM (SARS-CoV-2 RdRp; [5]) | other results
1 | CC(C)(C)C(=O)OCOP(=O)(COCCn1cnc2c(N)ncnc21)OCOC(=O)C(C)(C)C [Adefovir Dipivoxil, adefovir dipivoxil] | 3.78 ± 0.866 µM | 3.92 µM |  | 
2 | COc1ccc2cc1Oc1ccc(cc1)C[C@H]1c3c(cc4c(c3Oc3cc5c(cc3OC)CCN(C)[C@@H]5C2)OCO4)CCN1C [Cepharanthine, cepharanthine] |  |  |  | inhibition at 10 µM (SARS-CoV-2 RdRp; HEK-293T, max. dose 10 μM, HEK293T, 15 h): 5.84%; IC50 (SARS-CoV-2 RdRp; [4]): > 10 µM; Effect on SARS-CoV-2 RdRp activity (SARS-CoV-2 RdRp; HEK293T): did not affect; Effect on SARS-CoV-2 RdRp activity (SARS-CoV-2 RdRp; HEK293T, listed as cepharanthine): did not display any inhibitory effect; Effect on SARS-CoV-2 RdRp activity with nsp7 and nsp8 [1]: did not affect; Effect on SARS-CoV-2 RdRp activity with nsp7 and nsp8 ([1]; listed as cepharanthine): did not display any inhibitory effect
3 | Nc1nc(=O)n([C@@H]2CS[C@H](CO)O2)cc1F [Emtricitabine, emtricitabine] |  |  |  | inhibition at 100 µM (SARS-CoV-2 RdRp; HEK-293T): 88.2%; IC50 (SARS-CoV-2 RdRp; [4]): 15.4 ± 3.6 µM; IC50 (SARS-CoV-2 RdRp; IC50 of SARS-CoV-2 RdRp activity in the figure): 13.8 µM
4 | C=C1[C@H](CO)[C@@H](O)C[C@@H]1n1cnc2c(=O)[nH]c(N)nc21 [Entecavir Hydrate, entecavir hydrate] |  |  | 83.1% | 
5 | Cl.O[C@H]1[C@H]2c3cc4c(cc3CN3CCC(=C[C@@H]1O)[C@H]23)OCO4 [Lycorine, lycorine hydrochloride] | 1.47 ± 0.033 µM | 1.34 µM |  | FLuc activity (internal control) (SARS-CoV-2 RdRp; HEK293T): remained unchanged; IC50 (SARS-CoV-2): 0.878 ± 0.022 µM
6 | N=C(N)/N=C(\N)N1CCOCC1 [Moroxydine, moroxydine HCl] | 48.9 ± 14.4 µM | 37.1 µM | 76.5% | 
7 | CCC(CC)COC(=O)[C@H](C)N[P@](=O)(OC[C@H]1O[C@@](C#N)(c2ccc3c(N)ncnn23)[C@H](O)[C@@H]1O)Oc1ccccc1 [Remdesivir] |  |  |  | FLuc activity (internal control) (SARS-CoV-2 RdRp; HEK293T): maintained; inhibition at 6.7 µM (SARS-CoV-2 RdRp; HEK-293T, max. dose 6.7 μM, HEK293T, 15 h): 71%
8 | CO[C@H]1/C=C/O[C@@]2(C)Oc3c(C)c(O)c4c(O)c(c(/C=N/N5CCN(C)CC5)c(O)c4c3C2=O)NC(=O)/C(C)=C\C=C\[C@H](C)[C@H](O)[C@@H](C)[C@@H](O)[C@@H](C)[C@H](OC(C)=O)[C@@H]1C [Rifampin, rifampin] | 49.4 ± 4.02 µM | 30.3 µM |  | 
9 | Cc1cn([C@@H]2C[C@@H](O)[C@H](CO)O2)c(=O)[nH]c1=O [Telbivudine, telbivudine] | 45.9 ± 3.86 µM | 39.6 µM | 76.9% | 
